Data from patent publication US6827926B2, “Metallotetrapyrrolic photosensitizing agents for use in photodynamic therapy” (Miravant Pharmaceuticals, Inc., priority 2001, dated 2004).
pEC50: −log10 of the molar value. Like-named read-outs stand apart in the source and are kept apart here.

How the values were obtained:
[1] = tested on: normal uninjured rat carotid arteries (medial and adventitial cell populations); assay: In vivo rat carotid artery acellularity after PDT; set-up: species or system Sprague Dawley rats; conditions: for Max % rat Artery Accelularity: Table 3, drug dose 1 μMol, 50 J/cm^2, 3 days post treatment; for Max % Rat Artery Accelularity: Table 4, drug dose 4 μMol
Protocol: The acute effects of metallated photosensitizers, in response to light activation, to cause depletion of cell populations in the medial and adventitial layers of vessels was measured in normal uninjured rat carotid arteries. […] Shortly before the light treatment, the rats were anaesthetized with 3.5% isoflurane (Abbott Laboratories, IL, USA) and the femoral region of the right leg was shaved and cleaned. […] A direct arteriotomy was performed and a light balloon catheter ([…] Medical Technologies, Inc) was introduced into the vessel and advanced retrogradely into a non-manipulated region of the left common carotid artery via the abdominal aorta. […] After light treatment and removal of the catheter, the right femoral artery was tied off and the skin wound was closed. Rats were sacrificed three days post treatment as this corresponds to the known peak time that vascular cells, e.g., VSMC and myofibroblasts, proliferate and migrate in response to an injury. The area spanning both left and right carotid arteries and surrounding tissue was harvested, fixed, embedded in paraffin and sectioned. The tissues were stained with Hematoxylin and Eosin (Fisher Scientific, PA) and examined by light microscopy to histologically assess the cell population density in the medial and adventitial layers of the PDT-treated vessel wall. […] Metallo azaporphyrins with Ga, Zn, Al, Sn were excited at 575 nm, while Pt azaporphyrins were excited at 532 nm.

[2] = tested on: V79 (Chinese Hamster Lung Fibroblasts) cells; assay: In vitro cytotoxicity assay (light EC50, Alamar blue); format: cell-based
Protocol: The in vitro biological evaluation of photosensitizers for their ability to photosensitize cells was performed using standard procedures. Using 5% FBS/DMEM phenol-free media, wells (180 μl/well) were plated with 5×10^4 V79 (Chinese Hamster Lung Fibroblasts) cells/ml into two 96 well plates. Plate 1 was light-treated and plate 2 served as a control. The plates were Incubated at 37° C., 5% CO2 for 3-5 hours. Standard solutions of the photosensitizers were dissolved in pre-filtered Dimethyl Sulfoxide (DMSO). Drug was diluted in 5% FBS DMEM phenol free medium. Final drug concentrations for light and dark experiments were 0.01, 0.1, 1.0, 3.0 and 5.0 μM. Twenty microliters of each concentration were added to six replicate wells to the light and dark plate. The plates were wrapped in aluminum foil to avoid photoactivation and mixed in a gyratory shaker for approximately 2 minutes. Both plates were incubated for 24 hours at 37° C., 5% CO2. After a 24 hour incubation, drug-containing media was aspirated from the plates. Each well was rinsed with 180 μl Hepes buffer salt solution (HBSS) then aspirated to remove the HBSS. 180 μl of fresh media were added (5% FBS/DMEM phenol-free) to each well. […] Plate 2 was not light treated. Immediately after light treatment, 20 μl Alamar blue was added to each well in plate 1. Alamar blue was added to plate 2 immediately after fresh media was added. The plates were mixed on a gyratory shaker for 5 min.
Both plates were incubated under dark conditions for 24 hours at 37° C., 5% CO2. After 24 hour incubation, the plates were read on a plate reader spectrophotometer (Spectra Max 250) at wavelengths 570 and 600 nm. and the percentage of cell survival recorded.

[3] = tested on: normal skin of CD Hairless male rats; format: in vivo, rat
Excerpt: We tested metallo- and metal-free tetrapyrroles systemically (see following section) for normal skin response in relation to the pharmacodynamic distribution of the photosensitizers in CD hairless rats. The skin of CD hairless rats are poorly developed, often referred to as hyperkeratotic, with various sized cystic hair follicles containing concentric lamellar accumulations of keratinaceous material, which are often associated with enlarged sebaceous glands. It quickly became apparent that gallium tetrapyrroles induced a marked clearing of the hyperkeratotic lesions in the treatment areas on the hairless rats. In fact, this clearing could be induced without necrosis of the skin. No other metallotetrapyrrole type produced such effects. This observation led us to assess the metallotetrapyrrolic compounds for skin restructuring effects both topically and systemically and for their ability to reduce hair growth in the following animal models.
Photosensitizer normal skin response as well as skin healing response, was evaluated using CD Hairless male rats. Photosensitizers were administered in an liposomal egg yolk phospholipid formulation at 1, 1.5 and 2 μmol/kg body weight formulation per dose group as a single bolus intravenous injection given through a marginal tail vein using a 27 gauge needle and a 1 cc tuberculin syringe. Normal skin responses were evaluated by irradiating several spots on the skin of the rat with a 532 nm laser (150 mW/cm^2, 150J, 1 cm diameter) at 1, 6, 24, 48, and 96 hrs post injection. Normal skin responses were evaluated and documented. The time at which the last spot is observed at the concentration injected is reported in the far right hand column in Tables 3, 4, 5 and 6. Skin samples were taken for histological evaluation at days 1, 10, 20 and 22 post light treatment. Rats were housed under normal lighting and all study procedures involving the test article were conducted under light filtered through blue and green Roscolox light filters to prevent photoactivation or degradation of the drug.

[4] = Table 3 porphyrins, 24 h drug incubation, 532 nm, 1.25 J/cm^2, read-out: In Vitro EC50 Light
[5] = Table 3, time of last skin spot observed post injection, 1 μmol, 532 nm laser

| Normal skin Response (1 μmol) in hrs ([3]; rat, in vivo) | Compound | pEC50 [2, 4] | other results |
| --- | --- | --- | --- |
| None | CCC1=C(C)C2=[N+]3C1=Cc1c(C)c(CC)c4[n]1[Ga-2]31([OH])[n]3c(c(C)c(CCC(=O)NCCN(C)C)c3=CC3=[N+]1C(=C4)C(C)=C3CCC(=O)NCCN(C)C)=C2 [Example 70, Gallium Hydroxy Mesoporphyrin di-(N,N-dimethylaminoethylamide)] | 5.77 | – |
| None | Platinum Mesoporphyrin di(2-ethoxyethanolamide) [Example 69] | 6.30 | – |
| None | COC(=O)CCC1=C(C)c2cc3[n-]c(cc4nc(cc5[n-]c(cc1n2)c(CCC(=O)OC)c5C)C(C)=C4C=CCN(C)C)c(C)c3C=CCN(C)C.[Ga+3].[OH-] [Example 43, Gallium Hydroxy 3,8-Bis-(N,N-dimethylaminoprop-2-en-3-yl)deuteroporphyrin dimethyl ester] | 5.61 | – |
| None | CCC1=C(CC)C2=[N+]3C1=Nc1c(CC)c(CC)c4[n]1[Ga-2]31([OH])[n]3c(c(C)c(CCC(=O)[O-])c3=CC3=[N+]1C(=C4)C(C)=C3CCC(=O)[O-])=C2.[Na+].[Na+] [Example 88, Gallium Hydroxy 7,8,12,13-tetraethyl-12,17-dimethyl-10-azaporphyrin-2,18-di(propionic acid Sodium Salt)] | – | acellularity following PDT of rat arteries at longer treatment times post injection ([1]; 16, 24 hrs post injection): significant acellularity; accelularity in rat artery at a four hour treatment point ([1]; 4 hrs post administration): 10%; Max % Rat Artery Accelularity ([1]; 4 hrs): 10 (4 hrs) %; Max % Rat Artery Accelularity ([1]; 24 hrs): 100 (24 hrs) %; normal skin response at the drug doses used ([3]; rat, in vivo): no observed normal skin response |

Continued, compound first:

| Compound | Normal skin Response (1 μmol) in hrs ([3]; rat, in vivo) | pEC50 [2, 4] | other results |
| --- | --- | --- | --- |
| CCC1=C(C)C2=NC1=Cc1c(C)c(CC)c3[n]1[Sn]([Cl])([Cl])[n]1c(c(C)c(CCCC(=O)OC)c1=CC1=NC(=C3)C(C)=C1CCCC(=O)OC)=C2 [Example 45, Tin(IV) Dichloride 8,13-diethyl-3,7,12,17-tetramethylporphyrin-2,18-di(butanoic acid methyl ester)] | – | 5.82 | Max % rat Artery Accelularity [1]: 20%; Normal skin Response (1 μmol) [3, 5]: 24 h |
| CCC1=C(CC)C2=Nc3c(CC)c(CC)c4[n]3[In]([Cl])[n]3c(c(C)c(CCCOC)c3=CC3=NC(=C4)C(C)=C3CCCOC)=CC1=N2 [Example 107, Indium Chloride 7,8,12,13-tetraethyl-12,17-dimethyl-10-azaporphyrin-2,18-di(3-methoxypropyl)] | – | – | pEC50 ([2]; Table 4 azaporphyrins, 575 nm (Pt azaporphyrins 532 nm), 1.25 J/cm^2, read-out: In Vitro EC(50)): 7.30; Normal skin Response (1 μmol) ([3]; rat, in vivo): 96 h |
| CCC1=C(C)c2cc3[n-]c(cc4nc(cc5[n-]c(cc1n2)c(C)c5CCC(=O)NCCCO)C(CCC(=O)NCCCO)=C4C)c(C)c3CC.[Cl-].[Ga+3] [Example 66, Gallium Chloride Mesoporphyrin di(3-hydroxypropylamide)] | None | 6.70 | – |
| CCC1=C(C)C2=NC1=Cc1c(C)c(CC)c3[n]1[Pt][n]1c(c(C)c(CCCC(=O)OC)c1=CC1=NC(=C3)C(C)=C1CCCC(=O)OC)=C2 [Example 47, Platinum 8,13-diethyl-3,7,12,17-tetramethylporphyrin-2,18-di(butanoic acid methyl ester)] | – | 6.70 | Normal skin Response (1 μmol) [3, 5]: 48 h |
| CCC1=C(C)c2cc3[nH]c(cc4nc(cc5[nH]c(cc1n2)c(C)c5CCC(=O)NCCN(C)C)C(CCC(=O)NCCN(C)C)=C4C)c(C)c3CC.[Pt] [Example 71, Platinum Mesoporphyrin di(N,N-dimethylaminoethylamide)] | – | 6.70 | Normal skin Response (1 μmol) ([3]; rat, in vivo): 96 h |
| CCC1=C(C)C2=[N+]3C1=Cc1c(C)c(CC)c4[n]1[Zn-2]31[n]3c(c(C)c(CCC(=O)NCCCN5CCOCC5)c3=CC3=[N+]1C(=C4)C(C)=C3CCC(=O)NCCCN1CCOCC1)=C2 (stereo not drawn) [Example 63, Zinc Mesoporphyrin 3-(N-morpholino)propylamide] | None | 7.60 | – |
| CCC1=C(CC)C2=[N+]3C1=Nc1c(CC)c(CC)c4[n]1[Pt-2]31[n]3c(c(C)c(CCC(=O)[O-])c3=CC3=[N+]1C(=C4)C(C)=C3CCC(=O)[O-])=C2.[K+].[K+] (stereo not drawn) [Example 86, Platinum 7,8,12,13-tetraethyl-12,17-dimethyl-10-azaporphyrin-2,18-di(propionic acid Potassium Salt)] | – | – | Normal skin Response (1 μmol) ([3]; rat, in vivo): 96 h |
| CCOP(=O)(CCCC1=C(C)c2cc3cc(C)c(cc4nc(cc5[n-]c(cc1n2)c(CCCP(=O)(OCC)OCC)c5C)C(C)=C4)[n-]3)OCC.[Cl-].[In+3] [Example 81, Indium Chloride 3,7,12,17-tetramethylporphyrin-2,18-di((3′-diethylphosphono)propyl)] | – | 6.40 | Normal skin Response (1 μmol) [3, 5]: 48 h; photodynamic activity in vivo ([3]; text b240): photodynamically active in vivo |
| CCC1=C(C)c2cc3[n-]c(cc4nc(cc5[n-]c(cc1n2)c(C)c5CC)C(C)=C4CCCN(CC)CC)c(CCCN(CC)CC)c3C.[Zn+2] [Example 79, Zinc 8,13-diethyl-3,7,12,17 tetramethylporphyrin-2,18-di((N,N-diethyl)-3-aminopropyl)] | None | – | – |
| CCC1=C(C)c2cc3[n-]c(cc4nc(cc5[n-]c(cc1n2)c(C)c5CC)C(C)=C4CCCN1CCCC1)c(CCCN1CCCC1)c3C.[In+3].[OH-] [Example 76, Indium hydroxy 8,13-diethyl-3,7,12,17-tetramethylporphyrin-2,18-di(3-(N-pyrrolidino)propyl)] | – | 7.70 | Normal skin Response (1 μmol) [3, 5]: 96 h |
| CCC1=C(C)c2cc3[n-]c(cc4nc(cc5[n-]c(cc1n2)c(C)c5CCC(=O)OC)C(CCC(=O)OC)=C4C)c(C)c3CC.[Zn+2] [Example 33, Zinc Mesoporphyrin Dimethyl Ester] | – | – | Max % rat Artery Accelularity [1]: 0%; Normal skin Response (1 μmol) ([3]; rat, in vivo): 24 h |
| CCOC(=O)CCCCC1=C(C)c2cc3[nH]c(cc4nc(cc5[nH]c(cc1n2)c(CCCCC(=O)OCC)c5C)C(C)=C4CC)c(C)c3CC.[Pt] [Example 53, Platinum 8,13-diethyl-3,7,12,17-tetramethylporphyrin-2,18-di(pentanoic acid ethyl ester)] | – | 7.00 | Max % rat Artery Accelularity [1]: 20% |
